Measured values published in patent US20120135089A1, “E3 LIGASE INHIBITORS” (priority 2009, published 2012).

Key:
[1] = target: T1, Mdm2(C464A)-luciferase fusion protein (Homo sapiens, UniProt Q00987, C464A); experiment: counter screen in control Mdm2(C464A)-luciferase cell line; assay type: cell-based
T1 construct: Using full-length Mdm2 allowed for the presence of all domains of Mdm2; expressed in transfected cells
Method: The Mdm2-luciferase cell line was seeded at 7,500 cells per well, in 384-well white plates (PerkinElmer, Waltham, Mass., Cat. No. 6007688), in 27 μl of media (DMEM with FBS and P/S). Assay plates with cells were incubated at 37° C. overnight to allow cells to adhere. After 24 hours, 2 μl from the ‘mother’ plate (4 mg/ml) was transferred to a ‘daughter plate’ containing 148 μl media in order to dilute the compound 1:75. Next, 3 μl from each well of the ‘daughter plates’ was added to triplicate assay plates for a final concentration of 5.33 μg/ml. Assay plates were incubated at 37° C. for 2 hours. Then the cells were lysed with the addition of 30 μl of luminescence buffer (PerkinElmer, Cat. No. 6016989), and the plates were incubated at room temperature for 30 minutes before being analyzed on a Victor3 Plate Reader (PerkinElmer) for luminescence. Compounds that caused an increase in luminescence greater than 30% were re-ordered for further analysis. […] This was determined by comparing the negative control, no treatment, to the positive control, 10 μM MG132. […]
The above experiments verified that the cell lines could function as a valid system to screen for Mdm2 E3 ligase inhibitors. […] All compounds were incubated with the Mdm2-luciferase cell line for 2 hours, after which relative luminescence was detected by the addition of a luminesence buffer. […]

[2] = target: T2, Roc1/Cul1 E3 RING domain ligase (Homo sapiens, UniProt P62877+Q13616); experiment: in vitro Roc1/Cul1 E3 ligase ubiquitination assay; assay type: biochemical
T2 construct: gift from Zhen-Qiang Pan, Mount Sinai School of Medicine
Method: These assays were performed with 100 ng of full-length Flag-Mdm2 or 200 ng of Flag-Mdm2/HA-MdmX complexes (100 ng of each protein as each are present in a 1:1 ratio, when purified), ^32P-labeled ubiquitin, UbCH5c, and E1. Following a 30-minute incubation at 37° C., reactions were terminated and resolved on a SDS-PAGE gel followed by autoradiography. PC indicates positive control, and NC indicates negative control with UbCH5C eliminated from the reaction. The gels were quantified by phosphoimaging using ImageQuant software (GE Healthcare Bio-Sciences Corp., Piscataway, N.J.). […] Reactions were performed as in FIG. 11A except 500 ng GST-Mdm2 (residues 400-491) and GST-MdmX (residues 400-490) were used for ubiquitin polymerization. […] Reactions were performed as in FIG. 11A except with 3 μg of the Roc1/Cul1 ligase complex. Ubiquitination activity of the complex was tested in the presence of increasing concentrations of MEL23 and MEL24.
Ubiquitination assays in the presence of increasing concentrations of MEL compounds were performed with 1.5 μg of the Roc1-Cul1 ligase complex, ^32P-labeled ubiquitin, UbCH5c, and E1. Following 30 min incubation at 37° C., reactions were terminated and resolved on a SDS-PAGE gel (FIG. 31A) followed by autoradiography and quantitation (FIG. 31B). […]

T1 sequence (Q00987 whole entry C464A, the tested form may be a part): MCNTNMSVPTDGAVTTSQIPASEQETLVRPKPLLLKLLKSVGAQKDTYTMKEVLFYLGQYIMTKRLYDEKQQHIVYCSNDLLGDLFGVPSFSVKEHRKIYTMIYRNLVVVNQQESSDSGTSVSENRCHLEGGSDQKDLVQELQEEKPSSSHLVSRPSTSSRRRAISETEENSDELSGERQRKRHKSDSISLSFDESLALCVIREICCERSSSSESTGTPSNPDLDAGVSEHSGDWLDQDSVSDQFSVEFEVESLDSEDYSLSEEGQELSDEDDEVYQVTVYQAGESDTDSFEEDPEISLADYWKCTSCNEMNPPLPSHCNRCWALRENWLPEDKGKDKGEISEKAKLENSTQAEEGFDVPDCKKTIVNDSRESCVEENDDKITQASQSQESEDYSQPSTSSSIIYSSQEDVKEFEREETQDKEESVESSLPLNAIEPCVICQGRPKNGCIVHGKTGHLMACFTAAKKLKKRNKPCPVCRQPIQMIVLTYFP
T2 sequence (P62877 whole entry, the tested form may be a part): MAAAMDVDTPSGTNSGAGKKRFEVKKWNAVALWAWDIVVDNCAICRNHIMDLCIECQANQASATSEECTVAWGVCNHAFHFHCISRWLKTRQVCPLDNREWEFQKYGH
T2 sequence (Q13616 whole entry, the tested form may be a part): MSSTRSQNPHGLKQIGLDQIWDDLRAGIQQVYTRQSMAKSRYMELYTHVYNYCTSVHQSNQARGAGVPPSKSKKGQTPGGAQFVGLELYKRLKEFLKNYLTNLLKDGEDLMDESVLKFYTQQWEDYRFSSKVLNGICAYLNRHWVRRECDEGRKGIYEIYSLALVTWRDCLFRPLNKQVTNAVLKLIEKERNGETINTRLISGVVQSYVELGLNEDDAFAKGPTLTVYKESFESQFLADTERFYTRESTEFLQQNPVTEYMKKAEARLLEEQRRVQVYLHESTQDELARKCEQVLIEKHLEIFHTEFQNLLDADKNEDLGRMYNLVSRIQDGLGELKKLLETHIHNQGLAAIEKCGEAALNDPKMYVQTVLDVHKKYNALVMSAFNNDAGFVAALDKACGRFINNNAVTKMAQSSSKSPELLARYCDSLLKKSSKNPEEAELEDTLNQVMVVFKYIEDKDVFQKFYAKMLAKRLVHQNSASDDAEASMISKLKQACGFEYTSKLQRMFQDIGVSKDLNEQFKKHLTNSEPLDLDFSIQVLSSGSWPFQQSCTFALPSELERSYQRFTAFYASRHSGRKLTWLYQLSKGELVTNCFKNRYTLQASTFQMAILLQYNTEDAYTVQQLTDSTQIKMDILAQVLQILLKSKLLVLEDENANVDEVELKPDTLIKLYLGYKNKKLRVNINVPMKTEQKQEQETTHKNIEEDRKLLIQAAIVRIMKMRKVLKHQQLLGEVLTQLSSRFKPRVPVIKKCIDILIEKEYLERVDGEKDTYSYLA

## CCCCn1c(=O)[nH]c(O)c(C2NCCc3c2[nH]c2ccccc32)c1=O (stereo not shown) [MEL23]
[1]
  luminescence of the control Mdm2(C464A)-luciferase cell line: did not significantly affect
[2]
  Roc1/Cul1 E3 ligase activity in vitro: no inhibition

## Cn1c(O)c(C2NCCc3c2[nH]c2ccccc32)c(=O)n(C)c1=O (stereo not shown) [MEL24]
[1]
  luminescence of the control Mdm2(C464A)-luciferase cell line: did not significantly affect
[2]
  Roc1/Cul1 E3 ligase activity in vitro: no inhibition
